US20030087947A1, “Novel photosensitizers of 9-hydroxypheophorbide-a derivatives used for photodynamic therapy” (priority 2000, published 2003)

Experiments:
[1] = system: lung cancer A549 cell line; experiment: Cytotoxicity of photosensitizer without irradiation (dark culture, cell death rate); assay type: cell-based; settings: 75 μg/ml, dark culture room, 48 hours, no irradiation, mean of 5 experiments
Experimental: (§1) In order to minimize the side light reaction by natural light and lamp, the cell distribution and medium exchange were carried out in green light (500 nm), where the experimental samples were not reacted. After 75 μg/ml of reagent treatment on each 10 dishes at the dark culture room, the experimental samples were cultured for 48 hours. Then, the cell death rate was measured. The data was calculated as a mean value after 5 times experiments. […] Further, the cytotoxicity of 9-HPbD-a could be neglectable.

[2] = system: lung cancer A549 cell line; experiment: In-vitro photodynamic therapy efficacy (cell death after irradiation); assay type: cell-based
Experimental: The cell line added with “Photogem” was treated and irradiated by red light (570˜650 nm, 0.35 mW/cm^2, 315 J/m^2) from fluorescent lamp and the test sample was treated and irradiated by same red light and laser (660 nm, 0.35 mW/cm^2, 315 J/m^2). After irradiation treatment, the cell line was cultured by adding new medium and 10% of fetal calf serum at 37° C. The cytotoxicity was measured by clonogenic assay after 8 days.
The dose-response curve was prepared after following treatment; i) treating each 25 µg/ml of Photogem, 10-hydroxypheophytin-a and 9-hydroxypheophorbide-a (“9-HPbD-a”) to each cell line; ii) laying them for 2 hours; and iii) treating and irradiating the 660 nm light (315 J/m^2). To the Photogem sample, the light (630±10 nm) was used by 1 KW Xenon lamp (Model A 5000; Photon Technology International Inc.; Power density 75 mW/cm^2) equipped with 5 mm diameter of liquid light guide (2000A, Luminex, Munich, Germany).
as §1
Further, in a small amount (0.75 μg/ml), high cell death effect was detected. Using another synthesized compound of 9-HPbD-a in the other batch, the experiment was performed according to same protocol again. We detected the same result through the repeated experiments.
With a very small amount 0.0185 μg/ml of administration, the cell death treated with 9-HPbD-a occurred according to the increase of total light dose.

cyclin B1 = experiment: Western blot analysis of cell cycle regulation during photodynamic therapy; assay type: cell-based; settings: 75˜0.0185 μg/ml, 20 joule total light dose
Experimental: FIG. 1 is a photograph showing cell cycle regulation after treating 9-hydroxypheophorbide-a of formula (I) to the cancer cell line.
The change of cell cycle is a key element for evaluating cancer treatment. In most anti-cancer agents, the growth of cancer cells is suppressed by regulating the expression of cell cycle regulation gene. In this example, the change of cell cycle was measured using 9-HPbD-a during the photodynamic therapy. Using various cencentrations of photosensitizer (75˜0.0185 μg/ml) under 20 joule in total light dose, Western blot analysis was carried out to detect the change of cell cycle in accordance with change of regulation activity of cell cycle regulation gene.

cancer cell line = experiment: FACS analysis of cell cycle; assay type: cell-based; settings: FACS analysis after treatment
SNU-1041 implanted tumor [3] = experiment: Therapeutic effect at the implanted tumor (3 groups, bare fiber tip laser); assay type: in vivo, nude mice BALB/C/nu/nu; settings: among 10 cases; intratumoral injection 0.1˜0.2 ml, 660 nm diode laser after 1˜4 hours
Experimental: As experimental animals, 6 weeks aged male nude mice BALB/C/nu/nu were employed, supplying sterilized water and sterilized feed. These animals were bred in filter-top cage under proper temperature and moisture. To implant cultured cancer cell lines into nude mouse, 0.1 ml of SNU-1041 cell line suspension (10^7 cells/0.1 ml) was injected subcutaneously. After injection, the tumor occurred and the volume of tumor became increased after more than 8 weeks observation.
Plain melanoma cell line SNU-1041 was implanted into nude mouse. After the lapse of 8 weeks, it was observed that the tumor became spread in all body. The photodynamic therapy was performed only after the tumor volume became 100˜600 mm^3.
The experimental groups were divided into 3 groups for photodynamic therapy. 660 nm diode laser was inserted and irradiated using bare fiber tip. By monitoring the temperature outside of the tumor, the therapeutic effect caused by hyperthermia was removed. The optimal irradiation strength and time were measured.
The photodynamic therapy was performed when the volume of implanted tumor became about 100˜600 mm^3. The experimental groups were divided into 3 groups.
0.1˜0.2 ml of 9-HPbD-a (0.75 mg/ml) was injected into tumor using 30G syringe. After 1˜4 hours, 660 nm diode laser was irradiated using […] fiber optic tip. […]

SNU-1041 implanted tumor [4] = experiment: Photodynamic therapy using 9-HPbD-a (6 groups, tumor volume and RTG); assay type: in vivo, nude mice BALB/C/nu/nu
Experimental: The experimental groups were divided into 6 groups when the volume of implanted tumor became about 100˜600 mm^3. Following treatment was performed and the change of tumor was observed.
With only 0.1˜0.15 ml of administration of 9-HPbD-a and liposome conjugate into the tumor, the change of tumor was observed without irradiation.
With only 0.1˜0.15 ml of administration of Photogem into the tumor, the change of tumor was observed without irradiation.
0.1˜0.15 ml of Photogem was administered into the tumor.
0.1˜0.15 ml of 9-HPbD-a and liposome conjugate was administered into the tumor.
The photodynamic therapy was initiated after 2 weeks from implantation of cancer cell line, when the volume of tumor became about 100˜600 mm^3 (FIG. 6).
The measurements of tumor volume were carried out at the time of just before administration of test material; just after administration of 9-HPbD-a; 1 week after administration; 2 weeks after administration; 3 weeks after administration; and 4 weeks after administration. The anti-cancer effect was evaluated by the volume of tumor. The calculation of volume was carried out by using following equation.
(V=volume, A=long axis, B=short axis, C=height)
The evaluation of anti-cancer effect was decided after 4 weeks observation of tumor volume. […] FIG. 7 is a photograph showing that the tumor is treated by administration of 9-HPbD-a with 660 nm diode laser irradiation.

[5] = when used in more than a certain amount; cited from earlier work
[6] = decomposing slowly in the room temperature; cited from earlier work
[7] = 0.0185 μg/ml, total light dose 100 joule
[8] = 0.0375 μg/ml, total light dose 100 joule
[9] = 0.075 μg/ml, total light dose 100 joule
[10] = 0.75 μg/ml, total light dose 20 joule, 665 nm monochromatic light
[11] = 0.75 μg/ml, total light dose 100 joule
[12] = 7.5 μg/ml, total light dose 20 joule, 665 nm monochromatic light
[13] = 75 μg/ml, total light dose 20 joule, 665 nm monochromatic light
[14] = after 4 weeks from treatment, administration into tumor with 660 nm diode laser irradiation

| SMILES | Cytotoxicity (cell death rate) [1] | Efficacy (cell death) [2, 7] | Efficacy (cell death) [2, 8] | Efficacy (cell death) [2, 9] | Efficacy (cell death) [2, 10] | Efficacy (cell death) [2, 11] | Efficacy (cell death) [2, 12] | Efficacy (cell death) [2, 13] | Concentration, relative to known photosensitizer concentration, showing considerable cell death effect ([2]; A549, total light dose 20 joule) | Amount of cyclin B1 (cyclin B1) | Cell cycle effect (cancer cell line) | Cases showing complete elimination of tumor (SNU-1041 implanted tumor [3]) | Cases showing partial elimination of tumor (SNU-1041 implanted tumor [3]) | Relative tumor growth (RTG) (SNU-1041 implanted tumor [4]; [14]) | Volume of tumor (SNU-1041 implanted tumor [4]; [14]) | Change of tumor volume (SNU-1041 implanted tumor [4]; photosensitizer into the tumor only, without irradiation (Group 3 and 4)) | Efficacy (cell death) ([2]; 7.5 μg/ml, total light dose 100 joule) | Toxicity [5] | Stability [6] |
| --- | --- | --- | --- | --- | --- | --- | --- | --- | --- | --- | --- | --- | --- | --- | --- | --- | --- | --- | --- |
| C=Cc1c(C)c2cc3nc(c4c5[nH]c(cc6nc(cc1[nH]2)C(C)=C6CC)c(C)c5C(O)[C@@H]4C(=O)OC)[C@@H](CCC(=O)O)[C@@H]3C (stereo partly drawn) [9-HPbD-a, 9-hydroxypheophorbide-a] | 10.05% | 10% | 25% | 100% | 10˜20% | 100% | 100% | 100% | 1/100 | rapidly declined | cell cycle arrest occurred in G2/M cell cycle | 3 cases | 7 cases | 3.5 | 646 mm^3 | no observation of decline of tumor volume | – | – | – |
| C=Cc1c(C)c2cc3nc(c4c5[nH]c(cc6nc(cc1[nH]2)C(C)=C6CC)c(C)c5C(=O)C4(O)C(=O)OC)C(CCC(=O)OCC=C(C)CCCC(C)CCCC(C)CCCC(C)C)C3C (stereo not drawn) [10-hydroxypheophytin-a, reference compound] | 3.94% | 0% | 0% | 0% | 0% | 5.85% | 5˜10% | <70% | – | – | – | – | – | – | – | – | 100% | fatal toxicity | – |
| C=Cc1c(C)c2cc3nc(c4c5[nH]c(cc6nc(cc1[nH]2)C(C)=C6CC)c(C)c5C(=O)[C@@H]4C(=O)OC)[C@@H](CCC(=O)O)[C@@H]3C [pheophorbide-a] | – | – | – | – | – | – | – | – | – | – | – | – | – | – | – | – | – | – | low stability |
